{"source": "paper PMC5008636", "about": "“Phosphatidylserine and Phosphatidylethanolamine Bind to Protein Z Cooperatively and with Equal Affinity” (PLoS ONE, 2016)", "key": {"human fXa": {"biological_target": "human fXa (Homo sapiens, UniProt P00742)", "sequence (P00742 41-179 limits assumed)": "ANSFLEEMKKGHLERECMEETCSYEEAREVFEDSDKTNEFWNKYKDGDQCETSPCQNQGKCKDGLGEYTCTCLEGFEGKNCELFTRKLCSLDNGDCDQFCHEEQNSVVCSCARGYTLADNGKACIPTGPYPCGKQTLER", "sequence (P00742 235-488 limits assumed)": "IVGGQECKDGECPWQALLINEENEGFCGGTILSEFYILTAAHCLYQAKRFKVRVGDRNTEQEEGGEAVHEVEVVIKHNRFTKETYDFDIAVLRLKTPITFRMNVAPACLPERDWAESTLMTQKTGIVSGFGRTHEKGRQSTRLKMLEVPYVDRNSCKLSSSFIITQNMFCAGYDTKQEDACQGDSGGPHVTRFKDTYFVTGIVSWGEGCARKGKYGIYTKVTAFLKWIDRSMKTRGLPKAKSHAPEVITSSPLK", "assay": "FXa inhibition assay: AT-mediated inhibition of fXa amidolytic activity (S2765)", "assay_type": "biochemical", "conditions": "40 nM PZ, 3 μM AT, no membrane", "procedure": "Amidolytic activity of human fXa was measured in an assay mixtures containing 5 nM fXa, 3 μM AT, 50 μM phospholipid membrane (DOPS:DOPC, DOPE:DOPC, and only DOPC) and 40 nM PZ in buffer (50 mM Tris, 175 mM NaCl, 0.6% PEG, 5 mM CaCl2, pH 7.4 using the substrate S2765 according to the method described in [31]. Briefly, mixtures (150 μl) containing fXa in appropriate buffer were incubated with or without PZ and with or without membrane at 37°C in the wells of a microtiter plate for 5 mins before adding AT to that. 1 mM of substrate S2765 was added then and initial rate of substrate cleavage was determined by measuring the absorbance at 405 nm using the plate reader (Molecular Devices, CA, USA). Factor Xa activity was determined by comparing the initial rate of substrate cleavage with a standard curve produced with various concentrations of factor Xa in the same buffer conditions."}, "PZ [1]": {"biological_target": "T1, PZ (Homo sapiens, UniProt P22891)", "T1 construct": "purchased Enzyme Research Laboratories (South Bend, IN, USA)", "T1 sequence (P22891 41-400)": "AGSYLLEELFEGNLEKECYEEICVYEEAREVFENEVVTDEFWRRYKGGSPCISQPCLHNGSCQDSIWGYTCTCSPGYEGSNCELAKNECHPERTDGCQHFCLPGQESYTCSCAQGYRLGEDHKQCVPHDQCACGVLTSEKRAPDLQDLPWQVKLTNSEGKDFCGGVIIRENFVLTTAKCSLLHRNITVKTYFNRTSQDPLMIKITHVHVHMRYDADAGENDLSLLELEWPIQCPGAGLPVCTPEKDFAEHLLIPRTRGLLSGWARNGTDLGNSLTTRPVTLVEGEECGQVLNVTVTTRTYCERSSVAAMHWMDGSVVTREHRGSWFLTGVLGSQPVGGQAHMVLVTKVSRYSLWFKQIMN", "assay": "Binding of soluble lipids to PZ by intrinsic tryptophan fluorescence", "conditions": "for effect of pre-incubation of PZ with C6PS on affinity of PZ towards the lipid: saturating amount of C6PS; for lower binding affinity to PZ compared to PS and PE: soluble lipids, 5 mM Ca2+; for Kd in 1 mM Ca2+ relative to Kd in 5 mM Ca2+: 1 mM vs 5 mM Ca2+; for binding to PZ with excess EDTA: 5 mM EDTA in the assay buffer", "procedure": "(§1) PZ intrinsic tryptophan fluorescence as a function of increasing concentration of soluble phospholipid was measured as described in [12] using a FluoroLog spectrofluorometer (Horiba Jobin-Yvon Inc., Edison, NJ) with an excitation wavelength of 285nm (band-pass 4 nm); emission was recorded at 340 nm (band-pass 4 nm). Each experiment was performed below the critical micelle concentration (CMC) of the soluble lipid. The CMC was determined under experimental conditions following pyrene fluorescence as a function of increasing lipid concentration. Apparent dissociation constants for binding of PZ to soluble lipids were obtained by fitting the experimental data to a simple, single-site binding model, using the assumption that [C6PL]free ≈ [C6PL]total"}, "fXa": {"biological_target": "fXa", "set-up": "method as in PMID 21859710", "conditions": "soluble lipid; read-out: Kd for binding of fXa; cited from earlier work"}, "[2]": {"assay": "Critical micelle concentration by pyrene fluorescence", "assay_type": "physicochemical", "conditions": "under experimental conditions", "procedure": "as §1\nSince pyrene is hydrophobic, partitioning into the interior of a micelle is manifested as a sharp increase in the ratio of the intensity of the pyrene emissions at 373 and 383 nm."}, "PZ [3]": {"biological_target": "T1, PZ", "assay": "Equilibrium dialysis of soluble C6PS/C6PE binding to PZ", "conditions": "for Stoichiometry (Average) of lipid binding to PZ / ΔP (difference in phosphate concentration): 250 μM lipid, 5 mM Ca2+; for Stoichiometry (Average) of lipid binding to PZ: PZ 15, 20, 30 μM, calculated from Eq (1); for binding to PZ in equilibrium dialysis without Ca2+: absence of Ca2+ and presence of EDTA in the buffer", "procedure": "Experiments were performed using 2.0-ml Teflon dialysis cells (Harvard Apparatus, Holliston, MA) with the two cells separated by a 2000 Da molecular weight cut-off membrane. Both chambers contained equal amount of […], and one chamber contained the appropriate amount of PZ. Both chambers were allowed to equilibrate with each other at room temperature for 24 h while being rotated horizontally at 20 rpm. […] where, n is the stoichiometry of binding, [L] is the concentration of phospholipid added to the chamber, [P] is the protein concentration present in one half of the chamber, and Kd is the binding constant obtained from fluorescence experiments. Total protein concentration, [P], must be large enough to detect a measurable difference in phosphate concentration between the two chambers. In a recent analysis of soluble lipid binding to two non-equivalent sites on fIXa, it was shown that a narrow protein concentration range was sufficient to obtain stoichiometries for each site. […] For each protein concentration, three aliquots were withdrawn and phosphate concentrations were measured."}, "[4]": {"conditions": "150 nM PZ, 5 mM CaCl2, pH 7.5, 25° C, no pre-incubation lipid, single-site binding model, read-out: apparent Kd for binding to PZ"}, "[5]": {"conditions": "1 mM Ca2+, read-out: binding Kd to PZ in presence of 1 mM Ca2+"}}, "note": "Entries after “also recorded” stand apart in the source; their conditions may differ. Like-named read-outs stand apart in the source and are kept apart here.", "data": [{"compound": "PZ: human Protein Z, 62 kDa vitamin K-dependent cofactor", "values": [{"measurement": "effect of inclusion of PZ on AT inhibition of fXa", "setting": "human fXa", "value": "essentially no effect"}]}, {"compound": "CCCCCC(=O)OC[C@H](COP(=O)(O)OCC(O)CO)OC(=O)CCCCC", "note": "(stereo partly shown) [C6PG]", "values": [{"measurement": "Kd", "setting": "PZ [1]; [4]", "value": "131 ± 39", "unit": "µM"}, {"measurement": "effect of pre-incubation of PZ with C6PS on affinity of PZ towards the lipid", "setting": "PZ [1]", "value": "did not alter the affinity; also recorded: did not enhance the affinity"}, {"measurement": "lower binding affinity to PZ compared to PS and PE", "setting": "PZ [1]", "value": "~ 3 fold"}]}, {"compound": "CCCCCC(=O)OC[C@H](COP(=O)(O)OCCN)OC(=O)CCCCC", "note": "[C6PE, 1,2-dicaproyl-sn-glycero-3-phospho-L-ethanolamine]", "values": [{"measurement": "Kd", "setting": "fXa", "value": 91, "unit": "µM"}, {"measurement": "Kd", "setting": "PZ [1]; 150 nM PZ, 5 mM CaCl2, pH 7.5, 25° C, no pre-incubation lipid, single-site binding model, listed as PE, read-out: apparent Kd for binding to PZ", "value": "~48", "unit": "µM"}, {"measurement": "Kd", "setting": "PZ [1]; [4]", "value": "47.6 ± 8.2", "unit": "µM"}, {"measurement": "Kd", "setting": "PZ [1]; [5]", "value": 172, "unit": "µM"}, {"measurement": "Kd in 1 mM Ca2+ relative to Kd in 5 mM Ca2+", "setting": "PZ [1]", "value": "about 3.5 fold"}, {"measurement": "binding to PZ with excess EDTA", "setting": "PZ [1]", "value": "did not observe any binding"}, {"measurement": "critical micelle concentration (CMC)", "setting": "[2]", "value": 1.2, "unit": "mM"}, {"measurement": "Stoichiometry (Average) of lipid binding to PZ", "setting": "PZ [3]", "value": "2.0 (1.93 ± 0.2)"}, {"measurement": "ΔP (difference in phosphate concentration)", "setting": "PZ [3]; [PZ] 15 μM", "value": "28.9 ± 0.08"}, {"measurement": "ΔP (difference in phosphate concentration)", "setting": "PZ [3]; [PZ] 20 μM", "value": "31.8 ± 0.2"}, {"measurement": "ΔP (difference in phosphate concentration)", "setting": "PZ [3]; [PZ] 30 μM", "value": "42.8 ± 0.6"}, {"measurement": "binding to PZ in equilibrium dialysis without Ca2+", "setting": "PZ [3]", "value": "did not detect any binding"}]}, {"compound": "CCCCCC(=O)OC[C@H](COP(=O)(O)O)OC(=O)CCCCC", "note": "[C6PA]", "values": [{"measurement": "Kd", "setting": "PZ [1]; [4]", "value": "165 ± 25", "unit": "µM"}, {"measurement": "effect of pre-incubation of PZ with C6PS on affinity of PZ towards the lipid", "setting": "PZ [1]", "value": "did not alter the affinity; also recorded: did not enhance the affinity"}, {"measurement": "lower binding affinity to PZ compared to PS and PE", "setting": "PZ [1]", "value": "~ 3 fold"}]}, {"compound": "CCCCCC(=O)OC[C@H](COP(=O)([O-])OCC[N+](C)(C)C)OC(=O)CCCCC", "note": "[C6PC]", "values": [{"measurement": "Kd", "setting": "PZ [1]; [4]", "value": "129 ± 32", "unit": "µM"}, {"measurement": "effect of pre-incubation of PZ with C6PS on affinity of PZ towards the lipid", "setting": "PZ [1]", "value": "did not alter the affinity; also recorded: did not enhance the affinity"}, {"measurement": "lower binding affinity to PZ compared to PS and PE", "setting": "PZ [1]", "value": "~ 3 fold"}]}, {"compound": "CCCCCC(=O)OC[C@H](COP(=O)(O)OC[C@@H](N)C(=O)O)OC(=O)CCCCC", "note": "[C6(D)PS]", "values": [{"measurement": "Kd", "setting": "PZ [1]; [4]", "value": "911 ± 300", "unit": "µM"}]}, {"compound": "CCCCCC(=O)OC[C@H](COP(=O)(O)OC[C@H](N)C(=O)O)OC(=O)CCCCC", "note": "[C6PS, 1,2-dicaproyl-sn-glycero-3-phospho-L-serine]", "values": [{"measurement": "Kd", "setting": "fXa", "value": 86, "unit": "µM"}, {"measurement": "Kd", "setting": "PZ [1]; [4]", "value": "47.7 ± 10.7", "unit": "µM"}, {"measurement": "Kd", "setting": "PZ [1]; [5]", "value": 165, "unit": "µM"}, {"measurement": "Kd in 1 mM Ca2+ relative to Kd in 5 mM Ca2+", "setting": "PZ [1]", "value": "about 3.5 fold"}, {"measurement": "binding to PZ with excess EDTA", "setting": "PZ [1]", "value": "did not observe any binding"}, {"measurement": "critical micelle concentration (CMC)", "setting": "[2]", "value": 0.95, "unit": "mM"}, {"measurement": "Stoichiometry (Average) of lipid binding to PZ", "setting": "PZ [3]", "value": "2.0 (1.96 ± 0.1)"}, {"measurement": "ΔP (difference in phosphate concentration)", "setting": "PZ [3]; [PZ] 15 μM", "value": "27.6 ± 0.2"}, {"measurement": "ΔP (difference in phosphate concentration)", "setting": "PZ [3]; [PZ] 20 μM", "value": "32.3 ± 0.09"}, {"measurement": "ΔP (difference in phosphate concentration)", "setting": "PZ [3]; [PZ] 30 μM", "value": "45.3 ± 0.1"}, {"measurement": "binding to PZ in equilibrium dialysis without Ca2+", "setting": "PZ [3]", "value": "did not detect any binding"}]}]}
